Among the data in US8461328B2, “Tricyclic heterocyclic compounds, compositions and methods of use thereof” (Genentech, Inc., priority 2010, dated 2013) are Ki values, retold here.

SMILES strings stand for the structures. pKi: −log10 of the molar value.

Holding throughout (type): biochemical
One experiment has as its target T1, JAK1 (Homo sapiens, UniProt P23458).
T1 construct: made in house; host or cells: SF9 insect cells (baculovirus)
Briefly: JAK1 inhibition (Table 4). The note with it: read-out: JAK1 Ki.

The next experiment concerns the target T2, JAK2 (Homo sapiens, UniProt O60674).
T2 construct: made in house; host or cells: SF9 insect cells (baculovirus)
Briefly: JAK2 inhibition (Table 4). The note with it: read-out: JAK2 Ki.

The next experiment addresses T3, JAK3 (Homo sapiens, UniProt P52333).
T3 construct: made in house; host or cells: SF9 insect cells (baculovirus)
Briefly: JAK3 inhibition (Table 4). The note with it: read-out: JAK3 Ki.

For a further experiment, the target named is T4, TYK2 (Homo sapiens, UniProt P29597).
T4 construct: made in house; host or cells: SF9 insect cells (baculovirus)
T4 sequence (P29597 873-1187): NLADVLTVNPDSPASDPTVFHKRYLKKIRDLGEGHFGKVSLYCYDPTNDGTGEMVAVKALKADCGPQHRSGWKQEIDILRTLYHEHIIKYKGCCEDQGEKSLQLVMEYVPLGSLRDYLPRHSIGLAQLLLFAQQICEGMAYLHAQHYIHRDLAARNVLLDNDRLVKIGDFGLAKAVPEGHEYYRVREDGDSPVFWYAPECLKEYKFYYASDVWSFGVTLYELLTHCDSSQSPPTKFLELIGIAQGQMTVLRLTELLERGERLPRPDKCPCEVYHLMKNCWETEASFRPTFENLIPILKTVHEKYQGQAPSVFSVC
Description: TYK2 inhibition (Table 4).

T1 sequence (P23458 852-1154): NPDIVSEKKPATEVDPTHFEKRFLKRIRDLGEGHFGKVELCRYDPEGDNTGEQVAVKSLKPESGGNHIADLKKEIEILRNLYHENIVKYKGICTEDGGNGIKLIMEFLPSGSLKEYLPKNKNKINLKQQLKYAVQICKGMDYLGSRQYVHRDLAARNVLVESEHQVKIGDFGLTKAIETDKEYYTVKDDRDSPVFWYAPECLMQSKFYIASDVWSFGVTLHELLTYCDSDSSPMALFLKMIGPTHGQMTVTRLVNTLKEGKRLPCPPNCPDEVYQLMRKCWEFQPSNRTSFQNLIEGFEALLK
T3 sequence (P52333 783-1124): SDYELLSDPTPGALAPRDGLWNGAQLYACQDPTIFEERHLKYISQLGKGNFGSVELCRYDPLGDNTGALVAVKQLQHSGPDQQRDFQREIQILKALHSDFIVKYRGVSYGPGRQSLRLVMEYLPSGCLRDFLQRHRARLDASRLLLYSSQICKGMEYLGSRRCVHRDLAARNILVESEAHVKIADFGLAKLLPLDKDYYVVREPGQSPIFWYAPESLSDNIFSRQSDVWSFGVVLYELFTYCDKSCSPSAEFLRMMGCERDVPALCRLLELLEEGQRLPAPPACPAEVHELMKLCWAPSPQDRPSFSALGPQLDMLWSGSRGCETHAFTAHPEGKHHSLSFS
T2 sequence (O60674 812-1132): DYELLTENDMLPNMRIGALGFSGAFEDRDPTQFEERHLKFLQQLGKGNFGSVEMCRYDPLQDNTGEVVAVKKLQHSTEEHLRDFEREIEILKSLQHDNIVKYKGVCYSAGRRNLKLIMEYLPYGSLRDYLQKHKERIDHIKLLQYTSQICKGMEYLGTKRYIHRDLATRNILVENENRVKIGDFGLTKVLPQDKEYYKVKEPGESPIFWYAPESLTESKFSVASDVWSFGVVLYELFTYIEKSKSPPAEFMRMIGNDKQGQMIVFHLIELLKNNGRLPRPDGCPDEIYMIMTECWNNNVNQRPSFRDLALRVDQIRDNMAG

As usually defined, the pKi is the negative decadic logarithm of the Ki, by convention in mol/L. Take `CN(C)CCOC(=O)N[C@H]1CC[C@H](n2cnc3cnc4[nH]ccc4c32)CC1` [Example 358, [4-(6H-1,3,5,6-Tetraaza-as-indacen-1-yl)-cyclohexyl]-carbamic acid 2-dimethylamino-ethyl ester]: the pKi at JAK1 is 7.65; on JAK2, 7.08; at JAK3, 6.36; on TYK2, 6.83.
On to `O=S(=O)(c1ccccc1)N1CCC[C@@H](n2cnc3cnc4[nH]ccc4c32)C1` [Example 359, 1-((R)-1-Benzenesulfonyl-piperidin-3-yl)-1,6-dihydro-1,3,5,6-tetraaza-as-indacene], for which the negative-log Ki (pKi) at JAK1 was 7.91; on JAK2, 7.98; on JAK3, 7.17; at TYK2, 7.28.
With `N#Cc1ccc(S(=O)(=O)N2CCC[C@@H](n3cnc4cnc5[nH]ccc5c43)C2)cc1` [Example 360, 4-[(R)-3-(6H-1,3,5,6-Tetraaza-as-indacen-1-yl)-piperidine-1-sulfonyl]-benzonitrile], the pKi was 8.07 on JAK1, 8.09 at JAK2, 7.43 at JAK3 and 7.39 on TYK2.
For `CS(=O)(=O)N1CCC(n2c(-c3cccnc3)nc3cnc4[nH]ccc4c32)CC1` [Example 361, 1-(1-Methanesulfonyl-piperidin-4-yl)-2-pyridin-3-yl-1,6-dihydro-1,3,5,6-tetraaza-as-indacene], the pKi was 6.42 at JAK1, 6.61 on JAK2, 6.45 on JAK3 and 6.14 at TYK2.
For `Cc1nc2cnc3[nH]ccc3c2n1C1CCN(C2COC2)CC1` [Example 363, 2-Methyl-1-(1-oxetan-3-yl-piperidin-4-yl)-1,6-dihydro-1,3,5,6-tetraaza-as-indacene] the same measures were 8.22, 7.95, 6.91 and 7.26.
For `c1cc2c(ncc3ncn([C@H]4CCCNC4)c32)[nH]1` [Example 364, (S)-1-Piperidin-3-yl-1,6-dihydro-1,3,5,6-tetraaza-as-indacene] the same measures were 7.43, 6.75, 6.77 and 6.68.
Consider `N#CCCN1CCC(n2c(CCNS(=O)(=O)C3CC3)nc3cnc4[nH]ccc4c32)CC1` [Example 370, Cyclopropanesulfonic acid (2-{1-[1-(2-cyano-ethyl)-piperidin-4-yl]-1,6-dihydro-1,3,5,6-tetraaza-as-indacen-2-yl}-ethyl)-amide], for which the pKi on JAK1 is 8.53; on JAK2, 7.78; at JAK3, 7.56; at TYK2, 7.11.
For `COCCC(=O)NCCc1nc2cnc3[nH]ccc3c2n1C1CCN(CCC#N)CC1` [Example 371, N-(2-{1-[1-(2-Cyano-ethyl)-piperidin-4-yl]-1,6-dihydro-1,3,5,6-tetraaza-as-indacen-2-yl}-ethyl)-3-methoxy-propionamide] the same measures were 8.32, 7.45, 7.31 and 6.75.
Consider `COCC(=O)NCCc1nc2cnc3[nH]ccc3c2n1C1CCN(CCC#N)CC1` [Example 372, N-(2-{1-[1-(2-Cyano-ethyl)-piperidin-4-yl]-1,6-dihydro-1,3,5,6-tetraaza-as-indacen-2-yl}-ethyl)-2-methoxy-acetamide], for which the pKi is 8.34 at JAK1, 7.66 on JAK2, 7.54 at JAK3 and 6.87 on TYK2.
For `N#CCCN1CCC(n2c(CCNC(=O)c3ccc(F)cc3)nc3cnc4[nH]ccc4c32)CC1` [Example 373, N-(2-{1-[1-(2-Cyano-ethyl)-piperidin-4-yl]-1,6-dihydro-1,3,5,6-tetraaza-as-indacen-2-yl}-ethyl)-4-fluoro-benzamide] the same measures were 8.39, 7.57, 7.28 and 6.92.
Consider `CC(C)(C)C(=O)NCCc1nc2cnc3[nH]ccc3c2n1C1CCN(CCC#N)CC1` [Example 374, N-(2-{l-[l-(2-Cyano-ethyl)-piperidin-4-yl]-1,6-dihydro-1,3,5,6-tetraaza-as-indacen-2-yl}-ethyl)-2,2-dimethyl-propionamide], for which the pKi is 8.33 at JAK1, 7.05 on JAK2, 7.00 on JAK3 and 6.46 at TYK2.
The corresponding values for `N#CCCN1CCC(n2c(CCNC(=O)C3CCC3)nc3cnc4[nH]ccc4c32)CC1` [Example 375, Cyclobutanecarboxylic acid (2-{1-[1-(2-cyano-ethyl)-piperidin-4-yl]-1,6-dihydro-1,3,5,6-tetraaza-as-indacen-2-yl}-ethyl)-amide] are 8.39, 7.37, 7.22 and 6.80.
For `CC(C)CC(=O)NCCc1nc2cnc3[nH]ccc3c2n1C1CCN(CCC#N)CC1` [Example 376, N-(2-{1-[1-(2-Cyano-ethyl)-piperidin-4-yl]-1,6-dihydro-1,3,5,6-tetraaza-as-indacen-2-yl}-ethyl)-3-methyl-butyramide] the same measures were 8.38, 7.41, 7.21 and 6.72.
For `N#CCCN1CCC(n2c(CCNC(=O)C3CC3)nc3cnc4[nH]ccc4c32)CC1` [Example 377, Cyclopropanecarboxylic acid (2-{1-[1-(2-cyano-ethyl)-piperidin-4-yl]-1,6-dihydro-1,3,5,6-tetraaza-as-indacen-2-yl}-ethyl)-amide] the same measures were 8.44, 7.53, 7.30 and 6.73.
For the molecule `CC(C)C(=O)NCCc1nc2cnc3[nH]ccc3c2n1C1CCN(CCC#N)CC1` [Example 378, N-(2-{1-[1-(2-Cyano-ethyl)-piperidin-4-yl]-1,6-dihydro-1,3,5,6-tetraaza-as-indacen-2-yl}-ethyl)-isobutyramide], the negative-log Ki (pKi) at JAK1 was 8.30; on JAK2, 7.32; at JAK3, 7.21; on TYK2, 6.65.
The corresponding values for `CC(=O)NCCc1nc2cnc3[nH]ccc3c2n1C1CCN(CCC#N)CC1` [Example 379, N-(2-{1-[1-(2-Cyano-ethyl)-piperidin-4-yl]-1,6-dihydro-1,3,5,6-tetraaza-as-indacen-2-yl}-ethyl)-acetamide] are 8.45, 7.74, 7.58 and 6.93.
For `N#CCCN1CCC(n2c(CCNC(=O)c3ccccc3)nc3cnc4[nH]ccc4c32)CC1` [Example 380, N-(2-{1-[1-(2-Cyano-ethyl)-piperidin-4-yl]-1,6-dihydro-1,3,5,6-tetraaza-as-indacen-2-yl}-ethyl)-benzamide] the same measures were 8.40, 7.44, 7.20 and 6.85.
For `CCCS(=O)(=O)N1CCC(n2c(Cc3conc3C)nc3cnc4[nH]ccc4c32)CC1` [Example 381, 2-(3-Methyl-isoxazol-4-ylmethyl)-1-[1-(propane-1-sulfonyl)-piperidin-4-yl]-1,6-dihydro-1,3,5,6-tetraaza-as-indacene] the same measures were 7.06, 5.90, 5.73 and 5.70.
Turning to `NC(=O)Cc1nc2cnc3[nH]ccc3c2n1C1CCN(S(=O)(=O)C2CC2)CC1` [Example 382, 2-[1-(1-Cyclopropanesulfonyl-piperidin-4-yl)-1,6-dihydro-1,3,5,6-tetraaza-as-indacen-2-yl]-acetamide], the pKi on JAK1 is 6.87; on JAK2, 6.23; at JAK3 it was 6.27; at TYK2, 6.13.
Turning to `N#CCCN1CCC(n2c(CC3CC3)nc3cnc4[nH]ccc4c32)CC1` [Example 383, 3-[4-(2-Cyclopropylmethyl-6H-1,3,5,6-tetraaza-as-indacen-1-yl)-piperidin-1-yl]-propionitrile], the pKi at JAK1 was 8.01; on JAK2 it was 7.45; on JAK3, 7.67; on TYK2 it was 6.66.
For `N#CCCN1CCC(n2c(C3CCOCC3)nc3cnc4[nH]ccc4c32)CC1` [Example 385, 3-{4-[2-(Tetrahydro-pyran-4-yl)-6H-1,3,5,6-tetraaza-as-indacen-1-yl]-piperidin-1-yl}-propionitrile] the same measures were 7.29, 7.16, 7.81 and 5.89.
The corresponding values for `N#CCCN1CCC(n2c(CCn3cncn3)nc3cnc4[nH]ccc4c32)CC1` [Example 386, 3-{4-[2-(2-[1,2,4]Triazol-1-yl-ethyl)-6H-1,3,5,6-tetraaza-as-indacen-1-yl]-piperidin-1-yl}-propionitrile] are 7.75, 7.19, 7.10 and 6.50.
As for `CC(=O)N(C)CCc1nc2cnc3[nH]ccc3c2n1C1CCN(CCC#N)CC1` [Example 387, N-(2-{1-[1-(2-Cyano-ethyl)-piperidin-4-yl]-1,6-dihydro-1,3,5,6-tetraaza-as-indacen-2-yl}-ethyl)-N-methyl-acetamide], the pKi on JAK1 was 7.81; on JAK2, 7.27; at JAK3, 7.15; on TYK2, 6.46.
